The CheMixHub viscosity set
± gives the uncertainty stated by the source.

Assay: xn = mol fraction of the nth substance listed

CCN(CC)CC + c1ccccc1
viscosity (303.15 K, 101 kPa, x1 = 0.01024): 0.5567 ± 0.0048 mPa·s
viscosity (303.15 K, 101 kPa, x1 = 0.02091): 0.5513 ± 0.0048 mPa·s
viscosity (303.15 K, 101 kPa, x1 = 0.03113): 0.545 ± 0.005 mPa·s
viscosity (303.15 K, 101 kPa, x1 = 0.03955): 0.5386 ± 0.0048 mPa·s
viscosity (303.15 K, 101 kPa, x1 = 0.05006): 0.5341 ± 0.0046 mPa·s
viscosity (303.15 K, 101 kPa, x1 = 0.06182): 0.5287 ± 0.0047 mPa·s
viscosity (303.15 K, 101 kPa, x1 = 0.07124): 0.5215 ± 0.0048 mPa·s
viscosity (303.15 K, 101 kPa, x1 = 0.08041): 0.5162 ± 0.0046 mPa·s
viscosity (303.15 K, 101 kPa, x1 = 0.09192): 0.5096 ± 0.0046 mPa·s
viscosity (303.15 K, 101 kPa, x1 = 0.09995): 0.5041 ± 0.0047 mPa·s

CCCOC(C)=O + COCCOCCOCCOCCOC
viscosity (298.15 K, 101 kPa, x1 = 0.01): 3.323 ± 0.088 mPa·s
viscosity (298.15 K, 101 kPa, x2 = 0.0066): 0.564 ± 0.015 mPa·s
viscosity (298.15 K, 101 kPa, x2 = 0.0294): 0.602 ± 0.016 mPa·s
viscosity (298.15 K, 101 kPa, x2 = 0.0477): 0.633 ± 0.017 mPa·s
viscosity (298.15 K, 101 kPa, x2 = 0.0676): 0.67 ± 0.018 mPa·s
viscosity (298.15 K, 101 kPa, x2 = 0.103): 0.746 ± 0.02 mPa·s
viscosity (298.15 K, 101 kPa, x2 = 0.1448): 0.825 ± 0.022 mPa·s
viscosity (298.15 K, 101 kPa, x2 = 0.1941): 0.93 ± 0.025 mPa·s
viscosity (298.15 K, 101 kPa, x2 = 0.2422): 1.049 ± 0.028 mPa·s
viscosity (298.15 K, 101 kPa, x2 = 0.2932): 1.161 ± 0.031 mPa·s
viscosity (298.15 K, 101 kPa, x2 = 0.3625): 1.343 ± 0.035 mPa·s
viscosity (298.15 K, 101 kPa, x2 = 0.4204): 1.504 ± 0.04 mPa·s
viscosity (298.15 K, 101 kPa, x2 = 0.4781): 1.663 ± 0.044 mPa·s
viscosity (298.15 K, 101 kPa, x2 = 0.5293): 1.827 ± 0.048 mPa·s
viscosity (298.15 K, 101 kPa, x2 = 0.5986): 2.014 ± 0.053 mPa·s
viscosity (298.15 K, 101 kPa, x2 = 0.6621): 2.209 ± 0.058 mPa·s
viscosity (298.15 K, 101 kPa, x2 = 0.7157): 2.378 ± 0.063 mPa·s
viscosity (298.15 K, 101 kPa, x2 = 0.7802): 2.61 ± 0.069 mPa·s
viscosity (298.15 K, 101 kPa, x2 = 0.8069): 2.687 ± 0.071 mPa·s
viscosity (298.15 K, 101 kPa, x2 = 0.8324): 2.77 ± 0.073 mPa·s
viscosity (308.15 K, 101 kPa, x1 = 0.01): 2.605 ± 0.069 mPa·s
viscosity (308.15 K, 101 kPa, x2 = 0.0066): 0.496 ± 0.013 mPa·s
viscosity (308.15 K, 101 kPa, x2 = 0.0294): 0.529 ± 0.014 mPa·s
viscosity (308.15 K, 101 kPa, x2 = 0.0477): 0.554 ± 0.015 mPa·s
viscosity (308.15 K, 101 kPa, x2 = 0.0676): 0.585 ± 0.016 mPa·s
viscosity (308.15 K, 101 kPa, x2 = 0.103): 0.64 ± 0.017 mPa·s
viscosity (308.15 K, 101 kPa, x2 = 0.1448): 0.716 ± 0.019 mPa·s
viscosity (308.15 K, 101 kPa, x2 = 0.1941): 0.794 ± 0.021 mPa·s
viscosity (308.15 K, 101 kPa, x2 = 0.2422): 0.881 ± 0.023 mPa·s
viscosity (308.15 K, 101 kPa, x2 = 0.2932): 0.978 ± 0.026 mPa·s
viscosity (308.15 K, 101 kPa, x2 = 0.3625): 1.12 ± 0.03 mPa·s
viscosity (308.15 K, 101 kPa, x2 = 0.4204): 1.234 ± 0.033 mPa·s
viscosity (308.15 K, 101 kPa, x2 = 0.4781): 1.364 ± 0.036 mPa·s
viscosity (308.15 K, 101 kPa, x2 = 0.5293): 1.472 ± 0.039 mPa·s
viscosity (308.15 K, 101 kPa, x2 = 0.5986): 1.633 ± 0.043 mPa·s
viscosity (308.15 K, 101 kPa, x2 = 0.6621): 1.784 ± 0.047 mPa·s
viscosity (308.15 K, 101 kPa, x2 = 0.7157): 1.924 ± 0.051 mPa·s
viscosity (308.15 K, 101 kPa, x2 = 0.7802): 2.074 ± 0.055 mPa·s
viscosity (308.15 K, 101 kPa, x2 = 0.8069): 2.142 ± 0.057 mPa·s
viscosity (308.15 K, 101 kPa, x2 = 0.8324): 2.203 ± 0.058 mPa·s
viscosity (318.15 K, 101 kPa, x1 = 0.01): 2.085 ± 0.055 mPa·s
viscosity (318.15 K, 101 kPa, x2 = 0.0066): 0.445 ± 0.012 mPa·s
viscosity (318.15 K, 101 kPa, x2 = 0.0294): 0.471 ± 0.013 mPa·s
viscosity (318.15 K, 101 kPa, x2 = 0.0477): 0.494 ± 0.013 mPa·s
viscosity (318.15 K, 101 kPa, x2 = 0.0676): 0.519 ± 0.014 mPa·s
viscosity (318.15 K, 101 kPa, x2 = 0.103): 0.562 ± 0.015 mPa·s
viscosity (318.15 K, 101 kPa, x2 = 0.1448): 0.619 ± 0.016 mPa·s
viscosity (318.15 K, 101 kPa, x2 = 0.1941): 0.689 ± 0.018 mPa·s
viscosity (318.15 K, 101 kPa, x2 = 0.2422): 0.757 ± 0.02 mPa·s
viscosity (318.15 K, 101 kPa, x2 = 0.2932): 0.834 ± 0.022 mPa·s
viscosity (318.15 K, 101 kPa, x2 = 0.3625): 0.943 ± 0.025 mPa·s
viscosity (318.15 K, 101 kPa, x2 = 0.4204): 1.038 ± 0.028 mPa·s
viscosity (318.15 K, 101 kPa, x2 = 0.4781): 1.139 ± 0.03 mPa·s
viscosity (318.15 K, 101 kPa, x2 = 0.5293): 1.22 ± 0.032 mPa·s
viscosity (318.15 K, 101 kPa, x2 = 0.5986): 1.345 ± 0.036 mPa·s
viscosity (318.15 K, 101 kPa, x2 = 0.6621): 1.458 ± 0.039 mPa·s
viscosity (318.15 K, 101 kPa, x2 = 0.7157): 1.559 ± 0.041 mPa·s
viscosity (318.15 K, 101 kPa, x2 = 0.7802): 1.679 ± 0.045 mPa·s
viscosity (318.15 K, 101 kPa, x2 = 0.8069): 1.737 ± 0.046 mPa·s
viscosity (318.15 K, 101 kPa, x2 = 0.8324): 1.78 ± 0.047 mPa·s

CCN(CC)CC + CCCCCCCC
viscosity (303.15 K, 101.33 kPa, x1 = 0.1983): 0.4507 ± 0.0055 mPa·s
viscosity (303.15 K, 101.33 kPa, x1 = 0.4032): 0.4233 ± 0.0053 mPa·s
viscosity (303.15 K, 101.33 kPa, x1 = 0.5055): 0.411 ± 0.0053 mPa·s
viscosity (303.15 K, 101.33 kPa, x1 = 0.6044): 0.3999 ± 0.0052 mPa·s
viscosity (303.15 K, 101.33 kPa, x1 = 0.7987): 0.3795 ± 0.0051 mPa·s
viscosity (303.15 K, 101.33 kPa, x1 = 0.9028): 0.3694 ± 0.0051 mPa·s
viscosity (313.15 K, 101.33 kPa, x1 = 0.1983): 0.3913 ± 0.0052 mPa·s
viscosity (313.15 K, 101.33 kPa, x1 = 0.4032): 0.3701 ± 0.0051 mPa·s
viscosity (313.15 K, 101.33 kPa, x1 = 0.5055): 0.3605 ± 0.005 mPa·s
viscosity (313.15 K, 101.33 kPa, x1 = 0.6044): 0.3523 ± 0.005 mPa·s
viscosity (313.15 K, 101.33 kPa, x1 = 0.7987): 0.3379 ± 0.005 mPa·s
viscosity (313.15 K, 101.33 kPa, x1 = 0.9028): 0.331 ± 0.0049 mPa·s

ClC(Cl)(Cl)Cl + CCCCCCCCO
viscosity (298.15 K, 101 kPa, x2 = 0.023): 0.92 ± 0.009 mPa·s
viscosity (298.15 K, 101 kPa, x2 = 0.06): 1 ± 0.026 mPa·s
viscosity (298.15 K, 101 kPa, x2 = 0.1038): 1.1 ± 0.01 mPa·s
viscosity (298.15 K, 101 kPa, x2 = 0.12): 1.139 ± 0.03 mPa·s
viscosity (298.15 K, 101 kPa, x2 = 0.17): 1.297 ± 0.034 mPa·s
viscosity (298.15 K, 101 kPa, x2 = 0.2244): 1.468 ± 0.014 mPa·s
viscosity (298.15 K, 101 kPa, x2 = 0.23): 1.47 ± 0.038 mPa·s
viscosity (298.15 K, 101 kPa, x2 = 0.3266): 1.867 ± 0.017 mPa·s
viscosity (298.15 K, 101 kPa, x2 = 0.44): 2.483 ± 0.065 mPa·s
viscosity (298.15 K, 101 kPa, x2 = 0.54): 3.124 ± 0.081 mPa·s
viscosity (298.15 K, 101 kPa, x2 = 0.5645): 3.223 ± 0.03 mPa·s
viscosity (298.15 K, 101 kPa, x2 = 0.64): 3.847 ± 0.1 mPa·s
viscosity (298.15 K, 101 kPa, x2 = 0.7021): 4.311 ± 0.039 mPa·s
viscosity (298.15 K, 101 kPa, x2 = 0.83): 5.58 ± 0.14 mPa·s
viscosity (298.15 K, 101 kPa, x2 = 0.8568): 5.746 ± 0.051 mPa·s
viscosity (308.15 K, 101 kPa, x2 = 0.023): 0.796 ± 0.008 mPa·s
viscosity (308.15 K, 101 kPa, x2 = 0.1038): 0.937 ± 0.009 mPa·s
viscosity (308.15 K, 101 kPa, x2 = 0.2244): 1.221 ± 0.012 mPa·s
viscosity (308.15 K, 101 kPa, x2 = 0.3266): 1.527 ± 0.014 mPa·s
viscosity (308.15 K, 101 kPa, x2 = 0.5645): 2.495 ± 0.023 mPa·s
viscosity (308.15 K, 101 kPa, x2 = 0.7021): 3.197 ± 0.03 mPa·s
viscosity (308.15 K, 101 kPa, x2 = 0.8568): 4.172 ± 0.038 mPa·s
viscosity (318.15 K, 101 kPa, x2 = 0.023): 0.696 ± 0.007 mPa·s
viscosity (318.15 K, 101 kPa, x2 = 0.1038): 0.805 ± 0.008 mPa·s
viscosity (318.15 K, 101 kPa, x2 = 0.2244): 1.029 ± 0.01 mPa·s
viscosity (318.15 K, 101 kPa, x2 = 0.3266): 1.255 ± 0.012 mPa·s
viscosity (318.15 K, 101 kPa, x2 = 0.5645): 1.946 ± 0.018 mPa·s
viscosity (318.15 K, 101 kPa, x2 = 0.7021): 2.447 ± 0.023 mPa·s
viscosity (318.15 K, 101 kPa, x2 = 0.8568): 3.118 ± 0.029 mPa·s
